These results are taken from US7202237B2, “Pyridylether derivatives, their preparation and use” (NeuroSearch A/S, priority 1997, dated 2007).

Data set [1] concerns the target nAChR formed by the α7 subunit isoform (Rattus norvegicus, UniProt Q05941). As to the kind of experiment: biochemical. Format: binding.
Data set [2] deals with T1, neuronal nicotinic receptors (α4β2 subtype of nicotinic receptors) (Rattus norvegicus, UniProt P09483+P12390).
T1 construct: The forebrain (÷cerebellum) from a male Wistar rat (150–250 g) is homogenized; from tissue; host or cells: rat forebrain (without cerebellum) membrane homogenate
As to the kind of experiment: In vitro inhibition of 3H-epibatidin binding. As for the experimental part: In Vitro Inhibition of ^3H-epibatidin Binding
The high affinity binding site for ^3H-epibatidin is most certainly binding to the α4β2 subtype of nicotinic receptors. The identity of the low affinity site is still unknown; does it represent a second nicotinic receptor or a second site in the same receptor.
Tissue preparation: Preparations are performed at 0–4° C. unless otherwise indicated. The forebrain (÷cerebellum) from a male Wistar rat (150–250 g) is homogenized for 10–20 sec in 20 ml Tris, HCl (50 mM, pH 7.4) using an Ultra-Turrax homogenizer. The tissue suspension is centrifuged at 27,000×g for 10 min. The supernatant is discarded and the pellet is washed three times by centrifugation at 27,000×g for 10 min in 20 ml fresh buffer, and the final pellet is resuspended in fresh buffer (400 ml per g of original tissue) and used for binding assays.
Assay: Aliquots of 2.0 ml homogenate are added to 0.100 ml of test solution and 0.100 ml of ^3H-epibatidin (0.3 nM, final concentration), mixed and incubated for 60 min at room temperature. Non-specific binding is determined using (−)-nicotine (30 μM, final concentration). After incubation the samples are poured directly onto Whatman GF/C glass fibre filters (presoaked in 0.1% PEI for at least 20 min) under suction and immediately washed with 2×5 ml ice-cold buffer. The amount of radioactivity on the filters is determined by conventional liquid scintillation counting. Specific binding is total binding minus non-specific binding.

The target in data set [3] is nAChRs comprised of α4 and β2 subunits (Rattus norvegicus, UniProt P09483+P12390). Nature of the data set: In vitro inhibition of 3H-cytisine binding. On the procedure: In Vitro Inhibition of ^3H-cytisine Binding
The predominant subtype with high affinity for nicotine is comprised of α4 and β2 subunits. nAChRs of the latter type can selectively be labelled by the nicotine agonist ^3H-cytisine.
Tissue Preparation: Preparations are performed at 0–4° C. unless otherwise indicated. […] The homogenate is centrifuged at 27,000×g for 10 min. The supernatant is discarded and the pellet is resuspended in fresh buffer and centrifuged a second time. The final pellet is resuspended in fresh buffer (35 ml per g of original tissue) and used for binding assays.
Assay: Aliquots of 500 μl homogenate are added to 25 μl of test solution and 25 μl of ^3H-cytisine (1 nM, final concentration), mixed and incubated for 90 min at 2° C. Non-specific binding is determined using (−)-nicotine (100 μM, final concentration). After incubation the samples are added 5 ml of ice-cold buffer and poured directly onto Whatman GF/C glass fibre filters under suction and immediately washed with 2×5 ml ice-cold buffer. The amount of radioactivity on the filters is determined by conventional liquid scintillation counting. Specific binding is total binding minus non-specific binding.

For data set [4] the following is noted: times that of morphine; cited from earlier work.
Setting [5] is: rat forebrain homogenate, 0.3 nM 3H-epibatidin, read-out: 3H-epibatidin IC50.
The mark [6] stands for this setting: rat cerebral cortex homogenate, 1 nM 3H-cytisine, read-out: 3H-cytisine IC50.

Structures can show the parent of a compound that is named as a salt. Where two headings read alike, the source gives them in different places. Where only a bound is given, the exact number is not on record here.

Sequence of nAChRs comprised of α4 and β2 subunits (P09483 31-630): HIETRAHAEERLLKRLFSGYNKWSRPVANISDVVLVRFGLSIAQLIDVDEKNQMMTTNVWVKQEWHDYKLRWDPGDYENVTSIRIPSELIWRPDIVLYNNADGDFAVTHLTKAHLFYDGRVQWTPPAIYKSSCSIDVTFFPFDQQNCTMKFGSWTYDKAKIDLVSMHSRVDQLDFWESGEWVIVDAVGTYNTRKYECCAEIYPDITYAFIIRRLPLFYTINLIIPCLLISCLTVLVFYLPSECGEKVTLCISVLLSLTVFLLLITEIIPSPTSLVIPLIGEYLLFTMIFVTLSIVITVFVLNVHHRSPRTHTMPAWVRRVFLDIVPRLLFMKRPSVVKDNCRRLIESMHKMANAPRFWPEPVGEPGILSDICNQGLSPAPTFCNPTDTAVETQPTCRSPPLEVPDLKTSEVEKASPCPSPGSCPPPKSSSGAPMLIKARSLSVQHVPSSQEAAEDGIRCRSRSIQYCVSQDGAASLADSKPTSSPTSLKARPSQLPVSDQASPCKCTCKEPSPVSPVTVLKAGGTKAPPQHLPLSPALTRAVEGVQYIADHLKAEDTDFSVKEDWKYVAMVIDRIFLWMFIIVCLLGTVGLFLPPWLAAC
Sequence of nAChRs comprised of α4 and β2 subunits (P12390 25-500): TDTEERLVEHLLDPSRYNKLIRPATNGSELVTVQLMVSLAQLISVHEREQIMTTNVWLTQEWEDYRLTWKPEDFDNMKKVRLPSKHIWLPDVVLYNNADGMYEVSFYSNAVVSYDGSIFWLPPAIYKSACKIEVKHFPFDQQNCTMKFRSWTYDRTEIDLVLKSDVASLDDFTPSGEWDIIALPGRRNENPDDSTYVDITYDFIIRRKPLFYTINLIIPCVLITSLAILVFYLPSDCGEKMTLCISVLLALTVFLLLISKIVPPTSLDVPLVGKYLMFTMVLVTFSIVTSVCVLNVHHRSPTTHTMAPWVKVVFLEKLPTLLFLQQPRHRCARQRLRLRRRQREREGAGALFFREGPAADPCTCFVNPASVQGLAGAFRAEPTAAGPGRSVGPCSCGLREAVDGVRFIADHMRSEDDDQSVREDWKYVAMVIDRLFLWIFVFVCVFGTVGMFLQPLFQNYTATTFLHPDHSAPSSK
T1 sequence (P09483 31-630): as the sequence (P09483 31-630) above
T1 sequence (P12390 25-500): as the sequence (P12390 25-500) above
Sequence of nAChR formed by the α7 subunit isoform (Q05941 23-502): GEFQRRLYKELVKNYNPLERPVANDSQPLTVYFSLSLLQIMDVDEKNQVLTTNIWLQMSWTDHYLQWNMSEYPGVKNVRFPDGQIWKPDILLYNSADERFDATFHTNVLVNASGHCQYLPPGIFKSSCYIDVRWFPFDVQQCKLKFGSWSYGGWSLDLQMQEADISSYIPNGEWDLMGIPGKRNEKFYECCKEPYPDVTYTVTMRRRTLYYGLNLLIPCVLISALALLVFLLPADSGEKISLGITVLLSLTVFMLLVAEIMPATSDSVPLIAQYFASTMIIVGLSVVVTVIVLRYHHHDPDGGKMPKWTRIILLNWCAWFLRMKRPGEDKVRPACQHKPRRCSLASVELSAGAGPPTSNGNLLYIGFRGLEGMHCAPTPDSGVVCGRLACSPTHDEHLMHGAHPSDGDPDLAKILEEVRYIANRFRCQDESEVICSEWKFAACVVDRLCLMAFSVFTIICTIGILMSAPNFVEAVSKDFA

For orientation: melting point means the temperature, or range, at which the solid turns liquid. Regarding `c1cncc(OC2CCCNCC2)c1` (racemic) (as salt: fumaric acid salt) [Compound 7b, (±)-4-Oxy-(3-pyridyl)-homopiperidine fumaric acid salt], the melting point lay in the range of 117 to 119 °C.

In general, IC50 refers to the concentration needed to halve the response being measured. For `CN1CCC(Oc2cccnc2)C1` (racemic) [Compound 1a, (±)-1-Methyl-3-oxy-(3-pyridyl)-pyrrolidine], the IC50 worked out at 16000 nM in data set [1], 700 nM in data set [2] (setting [5]) and 100 nM in data set [3] (setting [6]).

In the case of `c1cncc(OC2CCNC2)c1` (racemic) [Compound 1b, (±)-3-Oxy-(3-pyridyl)-pyrrolidine], the IC50 in data set [1] (read-out: 3H-α-bungarotoxin IC50) was > 30000 nM; in data set [2] it was 410 nM; in data set [3], 70 nM.

Regarding `CN1CCCC(Oc2cccnc2)C1` (racemic) [Compound 3a, (±)-1-Methyl-3-oxy-(3-pyridyl)-piperidine], the IC50 in data set [1] turned out to be 19000 nM; in data set [2] (setting [5]) it was 720 nM; in data set [3] (setting [6]) it was 190 nM.

Regarding `c1cncc(OC2CCCNCC2)c1` (racemic) [Compound 7b, (±)-4-Oxy-(3-pyridyl)-homopiperidine fumaric acid salt], the IC50 in data set [1] turned out to be 20000 nM; in data set [2] (setting [5]) it was 300 nM; in data set [3] (setting [6]), 60 nM.

`Clc1ccc(C2CC3CCC2N3)cn1` (centres unmarked) [Epibatidine]: in data set [4], the “analgesic potency relative to morphine” value is given as ~500 times.
